In PubChem BioAssay AID2060905 (Molecular Pharmacology Branch, DTP, NCI, 2025):

Test system: 282377-053-R-J1-PDC complex spheroid viability
Experiment: Anticancer human tumor 282377-053-R-J1-PDC patient-derived colon adenocarcinoma cell line growth inhibition [RAS]
Conditions: for IC50: curve of first compound; for viability, T/C: stronger effect = lower value
From the text: RAS pathway inhibitors in Combinations in Complex Spheroids
A high-throughput screen of multi-cell type tumor spheroids was designed to identify active combinations of RAS pathway inhibitors and targeted small molecules. Complex spheroids include a stromal component modeled by human endothelial cells (HUVEC) and fibroblasts modeled by human mesenchymal stem cells (MSCs). The concentration ranges selected for each drug and investigational agent were based upon clinically achievable concentrations if the clinical Cmax of the agent was known.
Compounds. The drugs and investigational agents: abemaciclib (NSC768073), cobimetinib (NSC768068), divarasib (GDC6063, NSC841802), docetaxel (NSC628503), GDC-1971 (RLY-1971, NSC841576), gemcitabine (NSC613327), inavolisib (NSC800729), ipatasertib (NSC767898), KB-0742 (NSC834161), MRTX-1133 (NSC836407), osimertinib (NSC779217), RMC-4630 (NSC839698), RMC-6236 (NSC851965), RMC-6291 (NSC852671), Ro-3306 (NSC812927), sapanisertib (NSC764658), SN-38 (NSC673596), staurosporine (NSC755774), SY5609 (NSC837396), and tovorafenib (DAY101, NSC766906), were obtained from the National Cancer Institute (NCI) Developmental Therapeutics Program Chemical Repository. The FDA-approved anticancer drug set is available from the NCI Developmental Therapeutics Program. […] The stock solutions were prepared in dimethyl sulfoxide (DMSO, Sigma-Aldrich, St. Louis, MO, cat. D2650) at 800-fold the tested concentration and stored at -70 degrees C prior to their use. All drugs and investigational agents were tested over a range starting from a high concentration at or near the clinical Cmax and decreasing in half-log increments. If the clinical Cmax for an agent had not been determined, the highest concentration tested was 10 microM.
Cell Culture. All cells were maintained in an incubator at 37 degrees C and 5% CO2 with 95% humidity. The PDC lines were cultured according to standard operating procedures established by the NCI PDMR. All PDCs were thawed and cultured in Matrigel-coated flasks prepared with a working solution of 1X Ham's F-12 nutrient mix, without supplementation (Invitrogen, Waltham, MA, cat. 11765054), 100 U/mL penicillin-streptomycin (Invitrogen, cat. 15140122), and 2.5% Matrigel (Corning Inc., Corning, NY, cat. 354248) for the first three passages. The 362531-283-R-J2-PDC and 782815-120-R-J1-PDC lines were cultured in 6C/Colon 1B media, which includes advanced DMEM/F-12 (Thermo Fisher Scientific, cat. 12634028), 10 mM HEPES (Thermo Fisher Scientific, cat. 15630080), 1X GlutaMAX supplement (Thermo Fisher Scientific, cat. 35050061), 0.1 mg/mL primocin (InvivoGen, San Diego, CA, cat. ant-pm-2), 10% defined fetal bovine serum, heat inactivated (HyClone Laboratories Inc., Logan, UT, cat. SH30070.03HI), 50% L-WRN conditioned media (ATCC, cat. CRL-3276), 1.25 mM N-Acetyl-L-cysteine (Sigma-Aldrich, cat. A9165), 10 mM nicotinamide (Sigma-Aldrich, cat. N0636), 1X B-27 supplement (Thermo Fisher Scientific, cat. 17504044), 1X N-2 supplement (Thermo Fisher Scientific, cat. 17502048), 50 ng/mL human EGF (Thermo Fisher Scientific, cat. PHG0311), and 10 microM Y-27632 dihydrochloride (Tocris Bioscience, cat. 1254). The K12877-001-R-J1-PDC line was cultured in 6I media, which includes all 6C/Colon 1B media plus 10 ng/mL human FGF-10 (PeproTech, cat. 100-26), 1 ng/mL human FGF-2 (PeproTech, cat. 100-18B), 1 µM prostaglandin E2 (Tocris Bioscience, cat. 2296), […] hydrocortisone (Sigma-Aldrich, cat. H4001), and […] bovine insulin (Sigma-Aldrich, cat. I6634). The K86415-001-R-J1-PDC line was cultured in 6D media, which includes all 6C/Colon 1B media components minus the L-WRN conditioned media. The 485176-168-R4-J1-PDC was cultured in PANC media, which includes all 6C/Colon 1B media plus 100 ng/mL human FGF-10 (PeproTech, cat. 100-26), 500 nM SB-431542 (Selleckchem, cat. S1067), and 10 nM gastrin (Tocris Bioscience, cat. 3006). […]
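Note: spheroids exposed to agents for seven days before readout.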
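Throughout, for viability, T/C: luminescence viability as percent of DMSO vehicle control wells.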

O=C(c1ccc(F)c(F)c1Nc1ccc(I)cc1F)N1CC(O)([C@@H]2CCCCN2)C1 + C#Cc1c(F)ccc2cc(O)cc(-c3ncc4c(N5CC6CCC(C5)N6)nc(OCC56CCCN5CC(F)C6)nc4c3F)c12
IC50 (second compound 0.0316 µM): 0.08 µM | IC50 (second compound 0.1 µM): 0.0635 µM | IC50 (second compound 0.316 µM): 0.0504 µM | IC50 (second compound 1 µM): 0.0455 µM | IC50 (second compound 3.16 µM): 0.0425 µM | IC50 (second compound 10 µM): 0.0249 µM | viability, T/C (second compound 0.0316 µM, first compound 0.00316 µM): 92% | viability, T/C (second compound 0.0316 µM, first compound 0.01 µM): 73% | viability, T/C (second compound 0.0316 µM, first compound 0.0316 µM): 80.9% | viability, T/C (second compound 0.0316 µM, first compound 0.1 µM): 42.3% | viability, T/C (second compound 0.0316 µM, first compound 0.316 µM): 27.6% | viability, T/C (second compound 0.0316 µM, first compound 1 µM): 19.7% | viability, T/C (second compound 0.1 µM, first compound 0.00316 µM): 86.3% | viability, T/C (second compound 0.1 µM, first compound 0.01 µM): 75.2% | viability, T/C (second compound 0.1 µM, first compound 0.0316 µM): 62.5% | viability, T/C (second compound 0.1 µM, first compound 0.1 µM): 42.5% | viability, T/C (second compound 0.1 µM, first compound 0.316 µM): 26% | viability, T/C (second compound 0.1 µM, first compound 1 µM): 16.9% | viability, T/C (second compound 0.316 µM, first compound 0.00316 µM): 87.7% | viability, T/C (second compound 0.316 µM, first compound 0.01 µM): 77.5% | viability, T/C (second compound 0.316 µM, first compound 0.0316 µM): 58.5% | viability, T/C (second compound 0.316 µM, first compound 0.1 µM): 37.2% | viability, T/C (second compound 0.316 µM, first compound 0.316 µM): 23% | viability, T/C (second compound 0.316 µM, first compound 1 µM): 15.6% | viability, T/C (second compound 1 µM, first compound 0.00316 µM): 75.3% | viability, T/C (second compound 1 µM, first compound 0.01 µM): 77.1% | viability, T/C (second compound 1 µM, first compound 0.0316 µM): 59.1% | viability, T/C (second compound 1 µM, first compound 0.1 µM): 29% | viability, T/C (second compound 1 µM, first compound 0.316 µM): 20.5% | viability, T/C (second compound 1 µM, first compound 1 µM): 14.9% | viability, T/C (second compound 3.16 µM, first compound 0.00316 µM): 79.8% | viability, T/C (second compound 3.16 µM, first compound 0.01 µM): 75.6% | viability, T/C (second compound 3.16 µM, first compound 0.0316 µM): 56.4% | viability, T/C (second compound 3.16 µM, first compound 0.1 µM): 30.5% | viability, T/C (second compound 3.16 µM, first compound 0.316 µM): 20.7% | viability, T/C (second compound 3.16 µM, first compound 1 µM): 15.6% | viability, T/C (second compound 10 µM, first compound 0.00316 µM): 97.2% | viability, T/C (second compound 10 µM, first compound 0.01 µM): 75.1% | viability, T/C (second compound 10 µM, first compound 0.0316 µM): 41.8% | viability, T/C (second compound 10 µM, first compound 0.1 µM): 25.4% | viability, T/C (second compound 10 µM, first compound 0.316 µM): 17.5% | viability, T/C (second compound 10 µM, first compound 1 µM): 12.1%
